{
  "source": "the NIST ThermoML archive (doi:10.1021/je500110d)",
  "key": {"[1]": {"test": "Molar enthalpy of transition or fusion", "settings": "Crystal; DSC"}, "[2]": {"settings": "298.15 K, Liquid, Gas chromatography"}, "[3]": {"settings": "298.15 K, Metastable liquid, Gas chromatography"}},
  "note": "Numbers after ± are expanded uncertainties.",
  "data": [
    {"compound": "CCCCC(CC)COC(=O)c1ccc(C(=O)OCC(CC)CCCC)cc1", "note": "(configuration not stated) [bis(2-ethylhexyl) terephthalate]", "values": [
      {"measurement": "vapor or sublimation pressure", "setting": "[2]", "result": "5.4e-09 ± 1e-08", "unit": "kPa"}
    ]},
    {"compound": "CCCCOC(=O)c1ccccc1C(=O)OCc1ccccc1", "note": "[benzyl butyl 1,2-benzenedioate]", "values": [
      {"measurement": "vapor or sublimation pressure", "setting": "[2]", "result": "2e-07 ± 1e-07", "unit": "kPa"}
    ]},
    {"compound": "COC(=O)c1ccc(C(=O)OC)cc1", "note": "[dimethyl 1,4-benzenedicarboxylate]", "values": [
      {"measurement": "vapor or sublimation pressure", "setting": "[3]", "result": "2.14e-07 ± 3.1e-08", "unit": "kPa"}
    ]},
    {"compound": "O=C(OC1CCCCC1)c1ccccc1C(=O)OC1CCCCC1", "note": "[dicyclohexyl phthalate]", "values": [
      {"measurement": "Molar enthalpy of transition or fusion", "setting": "[1]", "result": "7.72 ± 0.693", "unit": "kcal/mol"},
      {"measurement": "vapor or sublimation pressure", "setting": "[3]", "result": "8e-08 ± 2e-08", "unit": "kPa"},
      {"measurement": "Triple point temperature", "setting": "Crystal, DTA", "result": "336.5 ± 0.7", "unit": "K"}
    ]},
    {"compound": "CCCCOC(=O)c1ccccc1C(=O)OCCCC", "note": "[dibutyl phthalate]", "values": [
      {"measurement": "vapor or sublimation pressure", "setting": "333.2 K, Liquid, Transpiration method", "result": "0.000224 ± 9e-06", "unit": "kPa"},
      {"measurement": "vapor or sublimation pressure", "setting": "338.4 K, Liquid, Transpiration method", "result": "0.000365 ± 1.4e-05", "unit": "kPa"},
      {"measurement": "vapor or sublimation pressure", "setting": "343.4 K, Liquid, Transpiration method", "result": "0.000586 ± 2.3e-05", "unit": "kPa"},
      {"measurement": "vapor or sublimation pressure", "setting": "348 K, Liquid, Transpiration method", "result": "0.000838 ± 3.3e-05", "unit": "kPa"},
      {"measurement": "vapor or sublimation pressure", "setting": "353.6 K, Liquid, Transpiration method", "result": "0.0014 ± 5e-05", "unit": "kPa"},
      {"measurement": "vapor or sublimation pressure", "setting": "358.7 K, Liquid, Transpiration method", "result": "0.00215 ± 8e-05", "unit": "kPa"},
      {"measurement": "vapor or sublimation pressure", "setting": "363.7 K, Liquid, Transpiration method", "result": "0.00316 ± 0.00012", "unit": "kPa"},
      {"measurement": "vapor or sublimation pressure", "setting": "368.7 K, Liquid, Transpiration method", "result": "0.00459 ± 0.00018", "unit": "kPa"},
      {"measurement": "vapor or sublimation pressure", "setting": "373.6 K, Liquid, Transpiration method", "result": "0.00675 ± 0.00026", "unit": "kPa"},
      {"measurement": "vapor or sublimation pressure", "setting": "378.5 K, Liquid, Transpiration method", "result": "0.00948 ± 0.00037", "unit": "kPa"}
    ]},
    {"compound": "CCCCCCCCOC(=O)c1ccccc1C(=O)OCCCCCCCC", "note": "[dioctyl 1,2-benzenedicarboxylate]", "values": [
      {"measurement": "vapor or sublimation pressure", "setting": "[2]", "result": "5.5e-09 ± 1.1e-08", "unit": "kPa"}
    ]}
  ]
}
